According to patent US20150071942A1, “COMBINATION THERAPY OF ANTI-MIF ANTIBODIES AND CHEMOTHERAPEUTICS” (Baxter Healthcare SA, priority 2012, published 2015):

Key:
A2780 cells = experiment: Cisplatin-dependent cell killing assay (calcein-AM, flow cytometry); format: cell-based, human; conditions: in presence of 50 nM RAM0; 48 hours; p<0.01
Method: Data are the means±standard deviation of 9 independent experiments.
(§1) After 48 hours of incubation cells were detached with Accutase™, labeled with calcein-AM and the level of calcein fluorescence was determined by flow cytometry. The mean fluorescence intensity in the absence of any drug or antibody was set to 1 to normalize for interassay variations. The mean fluorescent intensities were blotted against the cisplatin concentration and the half maximum active concentrations of cisplatin (EC50-values) were calculated.

A2780 xenografts = experiment: A2780 ovarian cancer xenograft in Mf1 nude mice (tumor growth); format: in vivo, human; conditions: monotherapy; RAM0 15 mg/kg every other day or cisplatin once a week
Method: Tumor weights are indicated after treatment of inoculated mice with a human control IgG or with RAM0. Antibodies were applied either alone or in combination with cisplatin.
This effect is of high relevance, in particular if it can also be observed in vivo. This was explored in female Mf1 nude mice inoculated with A2780 xenografts (FIG. 5). Mice (n=10/group) were inoculated with 1*10^6 A2780 cells resuspended in matrigel. […] Cisplatin was administered once a week starting on day 2 after xenograft inoculation.

[1] = tested on: A2780adr ovarian cancer cells; experiment: Induction of apoptosis (caspase 3 activity) in doxorubicin-resistant ovarian cancer cells; format: cell-based, human; conditions: agent alone; 72 hours of treatment
Method: The percentage increased caspase 3 activity over non-treated cells is indicated. Cells were treated with a human isotype control IgG (Control IgG), anti-MIF antibody RAM0 or RAM9 alone, a combination of control IgG and doxorubicin (Control IgG+Dox), doxorubicin alone (Dox) or a combination of anti-MIF antibody and doxorubicin (RAM0+Dox or RAM9+Dox).
The induction of apoptosis was assessed by detection of caspase 3 activity after 72 hours of treatment.

[2] = tested on: BxPC3 human pancreatic cancer cells; experiment: Orthotopic BxPC3 xenograft model for pancreatic cancer in nude mice (survival); format: in vivo; conditions: monotherapy, gemcitabine 100 mg/kg or RAM9 60 mg/kg alone
Method: Control groups were left untreated (left and right panel, dotted black line) or were treated with a control human monoclonal antibody (Control IgG, left panel, solid grey line) or with gemcitabine alone (Gemcitabine, left panel, solid black line). The survival curves represent the points in time when animals had to be sacrificed in accordance with UK Home Office Guidance.
BxPC3 cells are derived from a human pancreatic adenocarcinoma and grow inside the pancreas once they have been injected orthotopically in nude mice and present as a solid tumor. CD1-Foxn1/nu nude mice are orthotopically inoculated with 1×10^6 BxPC3 cells (injection of 30 μl matrigel:tumor cell suspension into the pancreas) and the tumor was allowed to establish for 7 days. […] Additional control groups were left untreated or received a control human IgG1 monoclonal antibody. The growth of internal tumors was judged by external signs (e.g. abdominal distension causing more than 20% increase in normal body weight, or a 20% loss in normal body weight) or clinical signs (e.g. dyspnoea, jaundice, neurological signs, digestive disturbances). Animals reaching the home office limit according to the UK home office guidance were sacrificed (for animal welfare reasons). The resulting survival curve was used as primary outcome of the study.

[3] = tested on: Colo357 human pancreatic cancer cell line; experiment: Orthotopic Colo357 xenograft model for pancreatic cancer in nude mice (survival, tumor volume, microvessel density); format: in vivo; conditions: monotherapy
Method: Control groups were left untreated or were treated with gemcitabine alone (Gem) or a control human monoclonal antibody alone (Control) or with a control human monoclonal antibody in combination with gemcitabine (Control+Gem). (A) Survival curves representing the points in time when animals had to be sacrificed in accordance with UK Home Office Guidance. (B) Tumor volume was measured in as subset of animals after animals had been sacrificed on day 20 after cell implantation. (C) After treatment, mice bearing a Colo357 xenograft were injected i.v. with the FITC-conjugated tomato lectin to visualize the blood vessels on day 12. Microvessel density was quantified using ImagePro Plus software (Image-Pro plus, Media Cybernetics) and vessel density was expressed as the mean percentage of total surface area.
CD1-Foxn1/nu nude mice are orthotopically inoculated with 1×10^5 Colo357 cells (injection of 30 μl matrigel:tumor cell suspension into the pancreas) and the tumor was allowed to establish for 7 days. […]
We further analyzed […] vessel density in a small cohort of animals. […] Cell nuclei were stained using propidium iodide, and vessels were visualized using confocal microscopy (Zeiss LSM 510 META), and microvessel density was quantified using ImagePro Plus software (Image-Pro plus, Media Cybernetics). Vessel density was expressed as the mean

LnCAP cells = experiment: Mitoxantrone-dependent cell killing assay (calcein-AM, flow cytometry); format: cell-based, human; conditions: for EC50: Homo sapiens, LNCaP, 48 h, n=10
Method: The single values as well as the mean±standard deviation of 10 independent experiments are shown.
as §1, with “plotted” for “blotted”, “mitoxantrone” for “cisplatin”

N.N.[Cl][Pt][Cl] [Cisplatin, reference compound]
EC50-value of cisplatin (A2780 cells): reduced significantly | tumor growth (A2780 xenografts): did not have any effect on tumor growth

COc1cccc2c1C(=O)c1c(O)c3c(c(O)c1C2=O)C[C@@](O)(C(=O)CO)C[C@@H]3O[C@H]1C[C@H](N)[C@H](O)[C@H](C)O1 [Doxorubicin, reference compound]
caspase 3 activity [1]: significant but minor enhanced caspase 3 activity

Nc1ccn([C@@H]2O[C@H](CO)[C@@H](O)C2(F)F)c(=O)n1 [Gemcitabine, reference compound]
survival of the xenografted mice [2]: only marginally prolonged the survival | blood vessel density in the tumour microenvironment ([3]; day 12, FITC-conjugated tomato lectin): Neither gemcitabine nor RAM0 have a significant effect | survival ([3]; gemcitabine 100 mg/kg or RAM0 60 mg/kg alone, i.p., Colo357 in nude mice): only prolonged survival to a marginal and statistically insignificant extent

O=C1c2c(O)ccc(O)c2C(=O)c2c(NCCNCCO)ccc(NCCNCCO)c21 [mitoxantrone, Mitoxantrone]
EC50 (LnCAP cells; in presence of 100 nM RAM0): 0.97 nM | EC50 (LnCAP cells; mitoxantrone alone): 1.6 nM | mean EC50 of mitoxantrone (LnCAP cells; in presence of 100 nM human isotype control antibody, compared to mitoxantrone alone): identical mean EC50
